Test results: ChEMBL document CHEMBL1201862, “PubChem BioAssay data set” (2004)
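Briefly, cells in 96-well plates were exposed to five compound concentrations for 48 h, and endpoints were estimated by linear interpolation. GI50 is the concentration that inhibits growth by half.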 Activity calls are given as the source filed them. Cut-off read from the data, not from the text of the source: active = GI50 up to about 1.1 µM and inactive = higher.

How the values were obtained:
Assay in all cases: growth of human tumour cells (NCI), 48 h
SR = tested on: SR
CCRF-CEM = tested on: CCRF-CEM
M14 = tested on: M14
SF-539 = tested on: SF-539
U-251 = tested on: U-251
A498 = tested on: A498
IGROV-1 = tested on: IGROV-1
UACC-62 = tested on: UACC-62
HCT-116 = tested on: HCT-116
ACHN = tested on: ACHN
NCI-H23 = tested on: NCI-H23
CAKI-1 = tested on: CAKI-1
SK-MEL-5 = tested on: SK-MEL-5
SF-268 = tested on: SF-268
MDA-MB-435 = tested on: MDA-MB-435
MDA-N = tested on: MDA-N
KM12 = tested on: KM12
A549 = tested on: A549
COLO 205 = tested on: COLO 205
SK-MEL-2 = tested on: SK-MEL-2

Measured: GI50

CCOC(=O)C1CCC(=O)N1C(=O)c1ccccc1Cl (configuration not stated)
inactive: SR > 100 µM | CCRF-CEM > 100 µM | M14 > 100 µM | SF-539 > 100 µM | U-251 > 100 µM | A498 > 100 µM | IGROV-1 > 100 µM | UACC-62 27.4 µM | HCT-116 > 100 µM | ACHN > 100 µM | NCI-H23 > 100 µM | CAKI-1 > 100 µM | SK-MEL-5 > 100 µM | SF-268 > 100 µM | MDA-MB-435 > 100 µM | MDA-N > 100 µM | KM12 > 100 µM | A549 > 100 µM

Cc1cc(S(=O)(=O)NC2=NCCCN2)c(S)cc1Cl
inactive: SR 21.2 µM | M14 29.6 µM | SF-539 57.8 µM | U-251 34.4 µM | A498 > 100 µM | IGROV-1 27.5 µM | UACC-62 27.9 µM | COLO 205 40.4 µM | HCT-116 31.8 µM | ACHN 33.8 µM | CAKI-1 16.8 µM | SK-MEL-2 12.4 µM | SK-MEL-5 17.9 µM | SF-268 87.1 µM | MDA-MB-435 18.3 µM | MDA-N 43.9 µM | KM12 37.8 µM | A549 21.6 µM

CC(=O)C(O)N1C(=O)C=CC1=O (configuration not stated)
inactive: SR 1.99 µM | M14 4.23 µM | SF-539 5.41 µM | U-251 17.4 µM | A498 18.1 µM | IGROV-1 21.1 µM | UACC-62 16.8 µM | COLO 205 1.56 µM | HCT-116 5.61 µM | ACHN 2.61 µM | NCI-H23 15.9 µM | CAKI-1 1.79 µM | SK-MEL-2 17.5 µM | SK-MEL-5 17.8 µM | SF-268 7.05 µM | MDA-MB-435 17.7 µM | MDA-N 18.6 µM | KM12 18.9 µM

CSc1ncnc2c1ncn2CCC(=O)O
inactive: SR > 100 µM | CCRF-CEM > 100 µM | M14 > 100 µM | SF-539 > 100 µM | A498 > 100 µM | IGROV-1 > 100 µM | UACC-62 > 100 µM | COLO 205 > 100 µM | HCT-116 > 100 µM | ACHN > 100 µM | NCI-H23 > 100 µM | CAKI-1 > 100 µM | SK-MEL-5 > 100 µM | SF-268 > 100 µM | MDA-MB-435 > 100 µM | MDA-N > 100 µM | KM12 > 100 µM | A549 > 100 µM

COc1ccc(NCc2c(O)ccc3ccccc23)cc1
inactive: SR 17.1 µM | M14 14 µM | SF-539 13.2 µM | U-251 28.3 µM | A498 24.6 µM | IGROV-1 20.4 µM | UACC-62 8.09 µM | COLO 205 22.8 µM | HCT-116 33.8 µM | ACHN 13.4 µM | NCI-H23 36.3 µM | CAKI-1 22.3 µM | SK-MEL-2 64.1 µM | SK-MEL-5 12.4 µM | SF-268 19.9 µM | MDA-MB-435 42.9 µM | MDA-N 30.1 µM | KM12 67.1 µM | A549 61.4 µM

O=C(NCCO)c1ccc(Cl)cc1
inactive: SR > 100 µM | CCRF-CEM 26.1 µM | M14 > 100 µM | U-251 > 100 µM | A498 > 100 µM | IGROV-1 > 100 µM | UACC-62 > 100 µM | HCT-116 > 100 µM | ACHN > 100 µM | NCI-H23 > 100 µM | CAKI-1 > 100 µM | SK-MEL-2 > 100 µM | SK-MEL-5 > 100 µM | SF-268 > 100 µM | MDA-MB-435 > 100 µM | MDA-N > 100 µM | KM12 > 100 µM | A549 > 100 µM

C#CCSc1cnc2ccccc2c1Sc1c[nH]c2ccccc2c1=O
inactive: SR 3.86 µM | CCRF-CEM > 100 µM | M14 17 µM | SF-539 28.6 µM | U-251 15 µM | IGROV-1 3.29 µM | UACC-62 17.1 µM | COLO 205 24 µM | HCT-116 13.3 µM | ACHN 13.6 µM | NCI-H23 15.4 µM | CAKI-1 23.7 µM | SK-MEL-2 19.1 µM | SK-MEL-5 15.6 µM | SF-268 29.9 µM | MDA-MB-435 23.6 µM | MDA-N 18.1 µM | KM12 21.1 µM | A549 14.4 µM

CC(=N/N=C/c1ccccn1)/C(C)=N/N=C(C)/C(C)=N/N=C(C)/C(C)=N/N=C(C)/C(C)=N\N=C\c1ccccn1
inactive: SR > 100 µM | M14 > 100 µM | SF-539 > 100 µM | U-251 > 100 µM | A498 > 100 µM | IGROV-1 > 100 µM | COLO 205 > 100 µM | HCT-116 > 100 µM | ACHN > 100 µM | NCI-H23 > 100 µM | CAKI-1 > 100 µM | SK-MEL-2 > 100 µM | SK-MEL-5 > 100 µM | SF-268 > 100 µM | MDA-MB-435 > 100 µM | MDA-N > 100 µM | KM12 > 100 µM | A549 > 100 µM

O=[N+]([O-])c1ccc(S(=O)(=O)n2c3ccc(Br)cc3c3nc4ccccc4nc32)cc1
inactive: SR > 100 µM | CCRF-CEM 20.7 µM | M14 > 100 µM | U-251 > 100 µM | A498 > 100 µM | IGROV-1 > 100 µM | UACC-62 > 100 µM | COLO 205 > 100 µM | HCT-116 > 100 µM | ACHN > 100 µM | NCI-H23 > 100 µM | CAKI-1 > 100 µM | SK-MEL-2 > 100 µM | SK-MEL-5 > 100 µM | SF-268 > 100 µM | MDA-MB-435 > 100 µM | MDA-N > 100 µM | KM12 > 100 µM | A549 > 100 µM

Cc1ccc(C(=O)NCc2ccccc2)cc1/N=N/N(C)C
inactive: SR 60 µM | CCRF-CEM 87.7 µM | M14 > 100 µM | SF-539 > 100 µM | U-251 > 100 µM | IGROV-1 > 100 µM | UACC-62 > 100 µM | COLO 205 > 100 µM | HCT-116 > 72.1 µM | ACHN > 75.3 µM | NCI-H23 > 100 µM | CAKI-1 > 100 µM | SK-MEL-2 > 100 µM | SK-MEL-5 > 74.3 µM | SF-268 > 62.5 µM | MDA-MB-435 > 100 µM | MDA-N > 100 µM | KM12 64.4 µM | A549 > 77.8 µM

Cc1oc2c(c1C)S(=O)(=O)C(C#N)=C(c1ccccc1)N2
inactive: SR > 100 µM | M14 > 100 µM | SF-539 > 100 µM | U-251 > 100 µM | A498 > 100 µM | IGROV-1 > 100 µM | UACC-62 > 100 µM | COLO 205 > 100 µM | ACHN > 100 µM | NCI-H23 > 100 µM | CAKI-1 > 100 µM | SK-MEL-2 > 100 µM | SK-MEL-5 > 100 µM | SF-268 > 100 µM | MDA-MB-435 > 100 µM | MDA-N > 100 µM | KM12 > 100 µM | A549 > 100 µM
